From ChEMBL document CHEMBL1142759, “Synthesis of some diguanidino 1-methyl-2,5-diaryl-1H-pyrroles as antifungal agents” (2005) come the findings set out here.

One may read the MIC as the least concentration at which growth counts as inhibited. High values mean a need for much substance, low ones inhibition by little substance.

For test [1], the system named is Candida albicans. The test can be described thus: Minimum inhibitory concentration against Candida albicans A261 evaluated by in vitro agar diffusion and micro-broth dilution assay. It counts as functional. (Agar diffusion results depend on both activity and mobility in agar.)
The test system of test [2] is Candida. The experiment in a line: Minimum inhibitory concentration against Candida krusei 1766-1 evaluated by in vitro agar diffusion and micro-broth dilution assay. Type of test: functional, Candida kruisii.
The test system of test [3] is Candida. The experiment in a line: Minimum inhibitory concentration against Candida krusei ATCC 6528 evaluated by in vitro agar diffusion and micro-broth dilution assay. It counts as functional, Candida kruisii.
Test [4] deals with Candida albicans. The test can be described thus: Minimum inhibitory concentration against Candida albicans V-01-191 evaluated by in vitro agar diffusion and microbroth dilution assay. Type of test: functional.
Test [5] relates to Nakaseomyces glabratus. The test can be described thus: Minimum inhibitory concentration against Candida glabrata ATCC 90030 evaluated by in vitro agar diffusion and microbroth dilution assay. Type of test: functional.
Test [6] deals with Aspergillus fumigatus. The test can be described thus: Minimum inhibitory concentration against Aspergillus fumigatus LSI-11 evaluated by in vitro agar diffusion and microbroth dilution assay. Type of test: functional.
The subject of test [7] is Candida tropicalis. The test can be described thus: Minimum inhibitory concentration against Candida tropicalis ATCC750 evaluated by in vitro agar diffusion and microbroth dilution assay. Type of test: functional.
The subject of test [8] is Candida parapsilosis. The experiment in a line: Minimum inhibitory concentration against Candida parapsilosis ATCC 22019 evaluated by in vitro agar diffusion and micro-broth dilution assay. It counts as functional. Particulars: Lodderomyces parapsilosis.

Converted amounts (≈) assume the structure as drawn.

Regarding `COc1cc(NC(=N)N)ccc1-c1ccc(-c2ccc(NC(=N)N)cc2OC)n1C`, the MIC in test [1], in test [2], in test [3], in test [4], in test [5] and in test [6] was 16 µg/mL (≈ 39.3 µM) each time. The MIC in test [7] and in test [8] was 16 µg/mL (≈ 39.3 µM) in each case.

As to `Cn1c(-c2ccc(NC(=N)N)cc2Cl)ccc1-c1ccc(NC(=N)N)cc1Cl`, the MIC in test [1] was 8 µg/mL (≈ 19.2 µM); in test [2], 16 µg/mL (≈ 38.4 µM); in test [3], 16 µg/mL (≈ 38.4 µM); in test [4], 8 µg/mL (≈ 19.2 µM); in test [5], 16 µg/mL (≈ 38.4 µM); in test [6], over 16 µg/mL. The MIC amounted to 4 µg/mL (≈ 9.61 µM) in test [7] and 16 µg/mL (≈ 38.4 µM) in test [8].

For the molecule `CCC(C)n1ncn(-c2ccc(N3CCN(c4ccc(OC[C@H]5CO[C@](Cn6cncn6)(c6ccc(Cl)cc6Cl)O5)cc4)CC3)cc2)c1=O` (some centres undefined) [ITRACONAZOLE], the MIC is under 0.03 µg/mL in test [1]; under 0.03 µg/mL in test [2]; 0.25 µg/mL (≈ 0.354 µM) in test [3]; 0.25 µg/mL (≈ 0.354 µM) in test [4]; 0.25 µg/mL (≈ 0.354 µM) in test [5]; 0.12 µg/mL (≈ 0.17 µM) in test [6]. Moreover, the minimal inhibitory concentration (MIC) was 0.12 µg/mL (≈ 0.17 µM) in test [7] and 0.25 µg/mL (≈ 0.354 µM) in test [8].

As to `Cn1c(-c2ccc(NC(=N)N)cc2)ccc1-c1ccc(NC(=N)N)cc1`, the MIC in test [1], in test [2], in test [3], in test [4], in test [5] and in test [6] was over 16 µg/mL in each case. In addition, the minimum inhibitory concentration (MIC) in test [7] and in test [8] was over 16 µg/mL in each case.

`Cn1c(-c2ccc(N=C(N)N)c(C(F)(F)F)c2)ccc1-c1ccc(N=C(N)N)c(C(F)(F)F)c1`: the minimum inhibitory concentration (MIC) in test [1], in test [2], in test [3], in test [4], in test [5] and in test [6] was 16 µg/mL (≈ 33.1 µM) in each case. The MIC in test [7] came out at 4 µg/mL (≈ 8.27 µM); in test [8], 16 µg/mL (≈ 33.1 µM).

For `Cn1c(-c2cc(F)c(NC(=N)N)cc2F)ccc1-c1cc(F)c(NC(=N)N)cc1F`, the MIC in test [1], in test [2], in test [3], in test [4], in test [5] and in test [6] was over 16 µg/mL in each case. Besides, the minimal inhibitory concentration (MIC) in test [7] and in test [8] was over 16 µg/mL in each case.

Turning to `OC(Cn1cncn1)(Cn1cncn1)c1ccc(F)cc1F` [FLUCONAZOLE], the minimum inhibitory concentration (MIC) in test [1] was 0.25 µg/mL (≈ 0.816 µM); in test [2], 32 µg/mL (≈ 104 µM); in test [3] it was over 8 µg/mL; in test [4], 6 µg/mL (≈ 19.6 µM); in test [5] it was over 8 µg/mL; in test [6], at least 64 µg/mL. Besides, the minimum inhibitory concentration (MIC) in test [7] and in test [8] was 8 µg/mL (≈ 26.1 µM) in each case.

As to `Cc1cc(NC(=N)N)ccc1-c1ccc(-c2ccc(NC(=N)N)cc2C)n1C`, the MIC in test [1] was determined as 2 µg/mL (≈ 5.33 µM); in test [2], 8 µg/mL (≈ 21.3 µM); in test [3], 4 µg/mL (≈ 10.7 µM); in test [4], 2 µg/mL (≈ 5.33 µM); in test [5], 2 µg/mL (≈ 5.33 µM); in test [6], 16 µg/mL (≈ 42.6 µM). Further, the values for the MIC in test [7] and in test [8] were 1 µg/mL (≈ 2.66 µM) and 2 µg/mL (≈ 5.33 µM), respectively.
